Where a chain is given by its changes, count along the chain named.
What was measured:
[1] = biological target: T1, ALFY-FYVE (Homo sapiens, UniProt Q8IZQ1, E3471K); experiment: 1H-15N HSQC NMR titration, chemical shift perturbation fit; assay type: binding
T1 sequence (Q8IZQ1 3428-3518 E3471K): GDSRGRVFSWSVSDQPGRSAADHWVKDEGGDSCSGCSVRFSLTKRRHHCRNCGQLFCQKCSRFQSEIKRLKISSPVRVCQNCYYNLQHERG

[2] = biological target: T2, ALFY-FYVE (Homo sapiens, UniProt Q8IZQ1); experiment: as above; assay type: binding
T2 sequence (Q8IZQ1 3428-3518): T1 sequence (Q8IZQ1 3428-3518 E3471K) with K44E

Kd [1]: 82.8 to 270 µM
Kd [2]: 50.5 to 184 µM
SMILES: O=P(O)(O)O[C@@H]1[C@H](O)[C@H](OP(=O)(O)O)[C@@H](O)[C@H](O)[C@H]1O [Ins(1,3)P2]

Source: publication PMC7902475 (Traffic (Copenhagen, Denmark), 2020)
